T/C data for 19 molecules are collected here from PubChem BioAssay AID256 (DTP/NCI, 2004).

This assay concerns CD2F1 mice, L1210 leukemia ip, survival T/C. The assay is described as follows: NCI In Vivo Anticancer Drug Screen. Data for tumor model L1210 Leukemia (intraperitoneal) in CD2F1 (CDF1) mice. As to conditions: higher = longer survival. A digest of the protocol: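 Vehicle-treated tumor-bearing mice served as controls (C) for compound-treated mice (T). Reported figure is T divided by C.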

Where [1] appears, read: endpoint: mean survival time, dose: 100.0 mg/kg/injection, schedule: Q01DX001 (ip), vehicle: saline with Tween-80.
Where [2] appears, read: endpoint: mean survival time, dose: 200.0 mg/kg/injection, schedule: Q01DX001 (ip), vehicle: saline with Tween-80.
[3] abbreviates: endpoint: mean survival time, dose: 400.0 mg/kg/injection, schedule: Q01DX001 (ip), vehicle: saline with Tween-80.
Setting [4] is: endpoint: mean survival time, dose: 100.0 mg/kg/injection, schedule: Q01DX009 (ip), vehicle: saline with Tween-80.
The mark [5] stands for this setting: endpoint: mean survival time, dose: 100.0 mg/kg/injection, schedule: Q04DX003 (ip), vehicle: saline with Tween-80.
[6] abbreviates: endpoint: mean survival time, dose: 200.0 mg/kg/injection, schedule: Q01DX009 (ip), vehicle: saline with Tween-80.
[7] abbreviates: endpoint: mean survival time, dose: 200.0 mg/kg/injection, schedule: Q04DX003 (ip), vehicle: saline with Tween-80.
[8] abbreviates: endpoint: mean survival time, dose: 400.0 mg/kg/injection, schedule: Q01DX009 (ip), vehicle: saline with Tween-80.
Where [9] appears, read: endpoint: mean survival time, dose: 400.0 mg/kg/injection, schedule: Q04DX003 (ip), vehicle: saline with Tween-80.
The mark [10] stands for this setting: endpoint: mean survival time, dose: 100.0 mg/kg/injection, schedule: Q04DX002 (ip), vehicle: saline with Tween-80.
Setting [11] is: endpoint: mean survival time, dose: 200.0 mg/kg/injection, schedule: Q04DX002 (ip), vehicle: saline with Tween-80.
The mark [12] stands for this setting: endpoint: mean survival time, dose: 12.5 mg/kg/injection, schedule: Q01DX009 (ip), vehicle: saline with Tween-80.
The mark [13] stands for this setting: endpoint: mean survival time, dose: 25.0 mg/kg/injection, schedule: Q01DX009 (ip), vehicle: saline with Tween-80.

Several values for one entry are separate records, joined by “and”; a condition that tells them apart may be missing. Identical values can stand only once. Toxic doses and inconclusive results are not listed.

For `CC1CN1C(=O)NCCCCCCNC(=O)N1CC1C` (stereo not drawn), the T/C is, setting by setting: (endpoint: mean survival time, dose: 0.31 mg/kg/injection, schedule: Q01DX009 (ip), vehicle: Klucel (hydroxypropylcellulose) (HPC)) 89 % of control; (endpoint: mean survival time, dose: 0.63 mg/kg/injection, schedule: Q01DX009 (ip), vehicle: Klucel (hydroxypropylcellulose) (HPC)) 119 % of control and 101 % of control; (endpoint: mean survival time, dose: 1.25 mg/kg/injection, schedule: Q01DX009 (ip), vehicle: Klucel (hydroxypropylcellulose) (HPC)) 97 % of control; (endpoint: mean survival time, dose: 2.5 mg/kg/injection, schedule: Q01DX001 (ip), vehicle: Klucel (hydroxypropylcellulose) (HPC)) 98 % of control; (endpoint: mean survival time, dose: 2.5 mg/kg/injection, schedule: Q01DX009 (ip), vehicle: Klucel (hydroxypropylcellulose) (HPC)) 110 % of control; (endpoint: mean survival time, dose: 5.0 mg/kg/injection, schedule: Q01DX001 (ip), vehicle: Klucel (hydroxypropylcellulose) (HPC)) 94 % of control. The T/C is 156 % of control (endpoint: mean survival time, dose: 5.0 mg/kg/injection, schedule: Q01DX009 (ip), vehicle: Klucel (hydroxypropylcellulose) (HPC)); 100 % of control (endpoint: mean survival time, dose: 10.0 mg/kg/injection, schedule: Q01DX001 (ip), vehicle: Klucel (hydroxypropylcellulose) (HPC)); 107 % of control (endpoint: mean survival time, dose: 20.0 mg/kg/injection, schedule: Q01DX001 (ip), vehicle: Klucel (hydroxypropylcellulose) (HPC)).
For `CCOC(=O)C1CN(C(=O)OCC)CC1=O` (stereo not drawn), the T/C is 103 % of control (endpoint: mean survival time, dose: 50.0 mg/kg/injection, schedule: Q01DX001 (ip), vehicle: other); 106 % of control (endpoint: mean survival time, dose: 100.0 mg/kg/injection, schedule: Q01DX001 (ip), vehicle: other); 107 % of control (endpoint: mean survival time, dose: 200.0 mg/kg/injection, schedule: Q01DX001 (ip), vehicle: other); 109 % of control (endpoint: mean survival time, dose: 400.0 mg/kg/injection, schedule: Q01DX001 (ip), vehicle: other).
Turning to `COc1ccc2c(NCCCCCCCCNc3c4ccccc4nc4cc(OC)ccc34)c3ccccc3nc2c1`, the T/C by setting is: (endpoint: mean survival time, dose: 0.47 mg/kg/injection, schedule: Q01DX009 (ip), vehicle: distilled water + alcohol) 116 % of control; (endpoint: mean survival time, dose: 0.94 mg/kg/injection, schedule: Q01DX009 (ip), vehicle: distilled water + alcohol) 120 % of control and 112 % of control; (endpoint: mean survival time, dose: 1.87 mg/kg/injection, schedule: Q01DX009 (ip), vehicle: distilled water + alcohol) 120 % of control; (endpoint: mean survival time, dose: 1.88 mg/kg/injection, schedule: Q01DX009 (ip), vehicle: distilled water + alcohol) 113 % of control and 112 % of control; (endpoint: median survival time, dose: 0.5 mg/kg/injection, schedule: Q01DX009 (ip), vehicle: distilled water + alcohol) 120 % of control; (endpoint: median survival time, dose: 1.0 mg/kg/injection, schedule: Q01DX009 (ip), vehicle: distilled water + alcohol) 118 % of control. Further, the T/C was 121 % of control (endpoint: median survival time, dose: 2.0 mg/kg/injection, schedule: Q01DX009 (ip), vehicle: distilled water + alcohol) and 124 % of control (endpoint: median survival time, dose: 4.0 mg/kg/injection, schedule: Q01DX009 (ip), vehicle: distilled water + alcohol).
On to `COc1ccc(N=N/N=c2\sc3cc(OC)ccc3n2C)cc1`, for which the T/C is, setting by setting: (endpoint: median survival time, dose: 7.5 mg/kg/injection, schedule: Q01DX005 (ip), vehicle: saline with Tween-80) 100 % of control; (endpoint: median survival time, dose: 15.0 mg/kg/injection, schedule: Q01DX005 (ip), vehicle: saline with Tween-80) 105 % of control; (endpoint: median survival time, dose: 30.0 mg/kg/injection, schedule: Q01DX005 (ip), vehicle: saline with Tween-80) 108 % of control; (endpoint: median survival time, dose: 42.5 mg/kg/injection, schedule: Q01DX005 (ip), vehicle: saline with Tween-80) 102 % of control; (endpoint: median survival time, dose: 60.0 mg/kg/injection, schedule: Q01DX005 (ip), vehicle: saline with Tween-80) 105 % of control; (endpoint: median survival time, dose: 85.0 mg/kg/injection, schedule: Q01DX005 (ip), vehicle: saline with Tween-80) 102 % of control. For the same molecule, the T/C is, setting by setting: (endpoint: median survival time, dose: 120.0 mg/kg/injection, schedule: Q01DX005 (ip), vehicle: saline with Tween-80) 104 % of control; (endpoint: median survival time, dose: 170.0 mg/kg/injection, schedule: Q01DX005 (ip), vehicle: saline with Tween-80) 100 % of control.
Take `Cc1ccc(S)cc1`: the T/C reads like this: under setting [1], 98 % of control; (endpoint: mean survival time, dose: 100.0 mg/kg/injection, schedule: Q04DX003 (ip), vehicle: saline sonified) 100 % of control; under setting [2], 90 % of control; (endpoint: mean survival time, dose: 200.0 mg/kg/injection, schedule: Q04DX003 (ip), vehicle: saline sonified) 95 % of control; under setting [3], 90 % of control; (endpoint: mean survival time, dose: 400.0 mg/kg/injection, schedule: Q04DX003 (ip), vehicle: saline sonified) 95 % of control.
Turning to `CC1(C)CCC2(CC1)CC(=O)OC(=O)C2`, the T/C is, setting by setting: under setting [1], 90 % of control; under setting [2], 87 % of control; under setting [3], 92 % of control.
As for `CC(C)c1cc2c(cc1O)C1(C)CCCC(C)(C(=O)O)C1CC2` (stereo not drawn), the T/C under setting [4] is 98 % of control; the T/C under setting [5] is 95 % of control; the T/C under setting [6] was 102 % of control; the T/C under setting [7] was 96 % of control; the T/C under setting [8] was 101 % of control; the T/C under setting [9] was 94 % of control.
For the molecule `CCCCCCCN(CCCCCCC)CC(O)c1cc2ccc(Br)cc2c2cccnc12` (stereo not drawn), the T/C was 95 % of control under setting [4] and 92 % of control under setting [6].
Consider `COc1ccccc1NC(=O)Nc1ccc(Cl)cc1OC`, for which the T/C under setting [10] was 87 % of control; the T/C under setting [11] is 94 % of control; the T/C (endpoint: mean survival time, dose: 400.0 mg/kg/injection, schedule: Q04DX002 (ip), vehicle: saline with Tween-80) was 97 % of control.
For `Nc1ccc(C(=O)O)cc1`, the T/C is 95 % of control under setting [1], 100 % of control under setting [2] and 101 % of control under setting [3].
With `O=[N+]([O-])c1ccccc1NCCNCCNc1ccccc1[N+](=O)[O-]`, the T/C is, setting by setting: under setting [5], 113 % of control; under setting [7], 98 % of control; under setting [9], 98 % of control.
Turning to `Nc1ccc(-c2ccc(N)c(Cl)c2)cc1Cl`, the T/C by setting is: (endpoint: mean survival time, dose: 100.0 mg/kg/injection, schedule: Q01DX009 (ip), vehicle: Klucel (hydroxypropylcellulose) (HPC)) 105 % of control; (endpoint: mean survival time, dose: 200.0 mg/kg/injection, schedule: Q01DX009 (ip), vehicle: Klucel (hydroxypropylcellulose) (HPC)) 103 % of control; (endpoint: mean survival time, dose: 400.0 mg/kg/injection, schedule: Q01DX009 (ip), vehicle: Klucel (hydroxypropylcellulose) (HPC)) 100 % of control.
For `O=C1C=C(NS(=O)(=O)c2ccccc2)C(=O)c2ccccc21`, the T/C reads like this: under setting [4], 101 % of control; under setting [5], 101 % of control; under setting [6], 97 % of control; under setting [7], 95 % of control; under setting [8], 97 % of control; under setting [9], 89 % of control.
For `O=C1C2C3CC4C5C3C1C5C1(OCCO1)C42` (stereo not drawn), the T/C was 107 % of control (endpoint: mean survival time, dose: 25.0 mg/kg/injection, schedule: Q04DX002 (ip), vehicle: saline with Tween-80); 107 % of control (endpoint: mean survival time, dose: 50.0 mg/kg/injection, schedule: Q04DX002 (ip), vehicle: saline with Tween-80); 100 % of control under setting [10]; 107 % of control under setting [11].
In the case of `NC(=O)NC(=O)C1CCCCC1C(=O)O` (stereo not drawn), the T/C by setting is: (endpoint: mean survival time, dose: 100.0 mg/kg/injection, schedule: Q01DX001 (ip), vehicle: saline) 103 % of control; (endpoint: mean survival time, dose: 200.0 mg/kg/injection, schedule: Q01DX001 (ip), vehicle: saline) 101 % of control; (endpoint: mean survival time, dose: 400.0 mg/kg/injection, schedule: Q01DX001 (ip), vehicle: saline) 109 % of control.
In the case of `N#C/C(=N\Nc1ccc(S(=O)(=O)O)cc1)C(N)=O`, the T/C under setting [4] was 95 % of control, the T/C under setting [6] was 91 % of control and the T/C under setting [8] is 94 % of control.
For the molecule `O=C1c2ccccc2C(=O)N1CBr`, the T/C is, setting by setting: under setting [12], 100 % of control; under setting [13], 97 % of control; (endpoint: mean survival time, dose: 50.0 mg/kg/injection, schedule: Q01DX009 (ip), vehicle: saline with Tween-80) 98 % of control.
`COc1ccc(S(=O)(=O)F)cc1NC(=O)c1ccc2ccccc2c1O`: the T/C is 112 % of control (endpoint: mean survival time, dose: 100.0 mg/kg/injection, schedule: Q01DX009 (ip), vehicle: saline); 108 % of control (endpoint: mean survival time, dose: 200.0 mg/kg/injection, schedule: Q01DX009 (ip), vehicle: saline); 113 % of control (endpoint: mean survival time, dose: 400.0 mg/kg/injection, schedule: Q01DX009 (ip), vehicle: saline).
For the molecule `COc1ccccc1C1N(C)CCCN1C`, the T/C (endpoint: mean survival time, dose: 6.25 mg/kg/injection, schedule: Q01DX009 (ip), vehicle: saline with Tween-80) is 100 % of control; the T/C under setting [12] was 102 % of control; the T/C under setting [13] was 102 % of control.
